According to ChEMBL document CHEMBL2380212, “Synthesis, single crystal and antitumor activities of benzimidazole-quinazoline hybrids” (Bioorg Med Chem Lett, 2013):

Legend:
BT-549 = assay: Cytotoxicity against human BT549 cells at 10 uM after 48 hrs by SRB assay; assay type: functional; details: BT-549, 48 h, read-out: GI
T47D = assay: Cytotoxicity against human T47D cells at 10 uM after 48 hrs by SRB assay; assay type: functional; details: read-out: GI
MCF7 = assay: Cytotoxicity against human MCF7 cells at 10 uM after 48 hrs by SRB assay; assay type: functional; details: MCF7, 48 h, read-out: GI
MDA-MB-231 = assay: Cytotoxicity against human MDA-MB-231 cells at 10 uM after 48 hrs by SRB assay; assay type: functional; details: MDA-MB-231, 48 h, read-out: GI
DU-145 = assay: Cytotoxicity against human DU145 cells at 10 uM after 48 hrs by SRB assay; assay type: functional; details: DU-145, 48 h, read-out: GI
UO-31 = assay: Cytotoxicity against human UO31 cells at 10 uM after 48 hrs by SRB assay; assay type: functional; details: UO-31, 48 h, read-out: GI
PC-3 = assay: Cytotoxicity against human PC3 cells at 10 uM after 48 hrs by SRB assay; assay type: functional; details: PC-3, 48 h, read-out: GI
TK-10 = assay: Cytotoxicity against human TK10 cells at 10 uM after 48 hrs by SRB assay; assay type: functional; details: TK-10, 48 h, read-out: GI
RXF 393 = assay: Cytotoxicity against human RXF393 cells at 10 uM after 48 hrs by SRB assay; assay type: functional; details: RXF 393, 48 h, read-out: GI
SN12C = assay: Cytotoxicity against human SN12C cells at 10 uM after 48 hrs by SRB assay; assay type: functional; details: read-out: GI
CAKI-1 = assay: Cytotoxicity against human Caki1 cells at 10 uM after 48 hrs by SRB assay; assay type: functional; details: CAKI-1, 48 h, read-out: GI
ACHN = assay: Cytotoxicity against human ACHN cells at 10 uM after 48 hrs by SRB assay; assay type: functional; details: read-out: GI
786-0 = assay: Cytotoxicity against human 786-0 cells at 10 uM after 48 hrs by SRB assay; assay type: functional; details: 786-0, 48 h, read-out: GI
SK-OV-3 = assay: Cytotoxicity against human SKOV3 cells at 10 uM after 48 hrs by SRB assay; assay type: functional; details: SK-OV-3, 48 h, read-out: GI
NCI/ADR-RES = assay: Cytotoxicity against human NCI/ADR-RES cells at 10 uM after 48 hrs by SRB assay; assay type: functional; details: read-out: GI
OVCAR-5 = assay: Cytotoxicity against human OVCAR5 cells at 10 uM after 48 hrs by SRB assay; assay type: functional; details: OVCAR-5, 48 h, read-out: GI
OVCAR-4 = assay: Cytotoxicity against human OVCAR4 cells at 10 uM after 48 hrs by SRB assay; assay type: functional; details: OVCAR-4, 48 h, read-out: GI
OVCAR-3 = assay: Cytotoxicity against human OVCAR3 cells at 10 uM after 48 hrs by SRB assay; assay type: functional; details: OVCAR-3, 48 h, read-out: GI
IGROV-1 = assay: Cytotoxicity against human IGROV1 cells at 10 uM after 48 hrs by SRB assay; assay type: functional; details: IGROV-1, 48 h, read-out: GI
UACC-62 = assay: Cytotoxicity against human UACC62 cells at 10 uM after 48 hrs by SRB assay; assay type: functional; details: UACC-62, 48 h, read-out: GI
UACC-257 = assay: Cytotoxicity against human UACC257 cells at 10 uM after 48 hrs by SRB assay; assay type: functional; details: UACC-257, 48 h, read-out: GI
SK-MEL-5 = assay: Cytotoxicity against human SK-MEL-5 cells at 10 uM after 48 hrs by SRB assay; assay type: functional; details: SK-MEL-5, 48 h, read-out: GI
SK-MEL-2 = assay: Cytotoxicity against human SK-MEL-2 cells at 10 uM after 48 hrs by SRB assay; assay type: functional; details: SK-MEL-2, 48 h, read-out: GI
MDA-MB-435 = assay: Cytotoxicity against human MDA-MB-435 cells at 10 uM after 48 hrs by SRB assay; assay type: functional; details: MDA-MB-435, 48 h, read-out: GI
Malme-3M = assay: Cytotoxicity against human MALME-3M cells at 10 uM after 48 hrs by SRB assay; assay type: functional; details: read-out: GI
U-251 = assay: Cytotoxicity against human U251 cells at 10 uM after 48 hrs by SRB assay; assay type: functional; details: U-251, 48 h, read-out: GI
LOX IMVI = assay: Cytotoxicity against human LOXIMVI cells at 10 uM after 48 hrs by SRB assay; assay type: functional; details: read-out: GI
SNB-75 = assay: Cytotoxicity against human SNB75 cells at 10 uM after 48 hrs by SRB assay; assay type: functional; details: SNB-75, 48 h, read-out: GI
SNB-19 = assay: Cytotoxicity against human SNB19 cells at 10 uM after 48 hrs by SRB assay; assay type: functional; details: SNB-19, 48 h, read-out: GI
SF-295 = assay: Cytotoxicity against human SF295 cells at 10 uM after 48 hrs by SRB assay; assay type: functional; details: SF-295, 48 h, read-out: GI
SF-268 = assay: Cytotoxicity against human SF268 cells at 10 uM after 48 hrs by SRB assay; assay type: functional; details: SF-268, 48 h, read-out: GI
SW-620 = assay: Cytotoxicity against human SW620 cells at 10 uM after 48 hrs by SRB assay; assay type: functional; details: SW-620, 48 h, read-out: GI
KM12 = assay: Cytotoxicity against human KM12 cells at 10 uM after 48 hrs by SRB assay; assay type: functional; details: KM12, 48 h, read-out: GI
HT-29 = assay: Cytotoxicity against human HT-29 cells at 10 uM after 48 hrs by SRB assay; assay type: functional; details: HT-29, 48 h, read-out: GI
HCT-15 = assay: Cytotoxicity against human HCT15 cells at 10 uM after 48 hrs by SRB assay; assay type: functional; details: HCT-15, 48 h, read-out: GI
HCT-116 = assay: Cytotoxicity against human HCT116 cells at 10 uM after 48 hrs by SRB assay; assay type: functional; details: HCT-116, 48 h, read-out: GI
COLO 205 = assay: Cytotoxicity against human COLO205 cells at 10 uM after 48 hrs by SRB assay; assay type: functional; details: COLO 205, 48 h, read-out: GI
NCI-H522 = assay: Cytotoxicity against human NCI-H522 cells at 10 uM after 48 hrs by SRB assay; assay type: functional; details: NCI-H522, 48 h, read-out: GI
NCI-H460 = assay: Cytotoxicity against human NCI-H460 cells at 10 uM after 48 hrs by SRB assay; assay type: functional; details: NCI-H460, 48 h, read-out: GI
NCI-H322M = assay: Cytotoxicity against human NCI-H322M cells at 10 uM after 48 hrs by SRB assay; assay type: functional; details: read-out: GI
NCI-H226 = assay: Cytotoxicity against human NCI-H226 cells at 10 uM after 48 hrs by SRB assay; assay type: functional; details: NCI-H226, 48 h, read-out: GI
NCI-H23 = assay: Cytotoxicity against human NCI-H23 cells at 10 uM after 48 hrs by SRB assay; assay type: functional; details: NCI-H23, 48 h, read-out: GI
HOP-62 = assay: Cytotoxicity against human HOP62 cells at 10 uM after 48 hrs by SRB assay; assay type: functional; details: HOP-62, 48 h, read-out: GI
HOP-92 = assay: Cytotoxicity against human HOP92 cells at 10 uM after 48 hrs by SRB assay; assay type: functional; details: HOP-92, 48 h, read-out: GI
[1] = Cytotoxicity against human EKVX cells at 10 uM after 48 hrs by SRB assay; assay type: functional; details: read-out: GI
A549 = assay: Cytotoxicity against human A549 cells at 10 uM after 48 hrs by SRB assay; assay type: functional; details: A549, 48 h, read-out: GI
SR = assay: Cytotoxicity against human SR cells at 10 uM after 48 hrs by SRB assay; assay type: functional; details: read-out: GI
MOLT-4 = assay: Cytotoxicity against human MOLT4 cells at 10 uM after 48 hrs by SRB assay; assay type: functional; details: MOLT-4, 48 h, read-out: GI
RPMI-8226 = assay: Cytotoxicity against human RPMI8226 cells at 10 uM after 48 hrs by SRB assay; assay type: functional; details: RPMI-8226, 48 h, read-out: GI
K562 = assay: Cytotoxicity against human K562 cells at 10 uM after 48 hrs by SRB assay; assay type: functional; details: K562, 48 h, read-out: GI
HL-60(TB) = assay: Cytotoxicity against human HL-60(TB) cells at 10 uM after 48 hrs by SRB assay; assay type: functional; details: HL-60, 48 h, read-out: GI
CCRF-CEM = assay: Cytotoxicity against human CCRF-CEM cells at 10 uM after 48 hrs by SRB assay; assay type: functional; details: read-out: GI
[2] = n-Octanol-phosphate buffer partition coefficient, log P of the compound at pH 7.4 by shake flask method; assay type: physicochemical

With O=c1[nH]cc(F)c(=O)[nH]1 [FLUOROURACIL] the inhibition of growth at 10 µM (BT-549) was 37.8%, the inhibition of growth at 10 µM (T47D) was 56.7% and the inhibition of growth at 10 µM (MCF7) was 11.5%. For the same compound, the inhibition of growth at 10 µM (MDA-MB-231) was 78.1%, the inhibition of growth at 10 µM (DU-145) was 35.5% and the inhibition of growth at 10 µM (UO-31) was 41.3%. For the same compound, the inhibition of growth at 10 µM (PC-3) was 58.2%, the inhibition of growth at 10 µM (TK-10) was 66.9% and the inhibition of growth at 10 µM (RXF 393) was 34.3%. For the same compound, the inhibition of growth at 10 µM (SN12C) was 54%, the inhibition of growth at 10 µM (CAKI-1) was 39.4% and the inhibition of growth at 10 µM (ACHN) was 39.3%. For the same compound, the inhibition of growth at 10 µM (786-0) was 48.7%, the inhibition of growth at 10 µM (SK-OV-3) was 77.5% and the inhibition of growth at 10 µM (NCI/ADR-RES) was 47.6%. For the same compound, the inhibition of growth at 10 µM (OVCAR-5) was 44.3%, the inhibition of growth at 10 µM (OVCAR-4) was 59.4% and the inhibition of growth at 10 µM (OVCAR-3) was 47.4%. It also gave an inhibition of growth at 10 µM (IGROV-1) of 51.2%, an inhibition of growth at 10 µM (UACC-62) of 39.7% and an inhibition of growth at 10 µM (UACC-257) of 19.5%. It also gave an inhibition of growth at 10 µM (SK-MEL-5) of 33.7%, an inhibition of growth at 10 µM (SK-MEL-2) of 95.5% and an inhibition of growth at 10 µM (MDA-MB-435) of 36.6%. The inhibition of growth at 10 µM (Malme-3M) was 58.2%, the inhibition of growth at 10 µM (U-251) was 50.3% and the inhibition of growth at 10 µM (LOX IMVI) was 30.4%. For the same compound, the inhibition of growth at 10 µM (SNB-75) was 65.9%, the inhibition of growth at 10 µM (SNB-19) was 65.9% and the inhibition of growth at 10 µM (SF-295) was 69.1%. The inhibition of growth at 10 µM (SF-268) was 59%, the inhibition of growth at 10 µM (SW-620) was 50.1% and the inhibition of growth at 10 µM (KM12) was 40.7%. For the same compound, the inhibition of growth at 10 µM (HT-29) was 27.1%, the inhibition of growth at 10 µM (HCT-15) was 26.5% and the inhibition of growth at 10 µM (HCT-116) was 17.8%. It also gave an inhibition of growth at 10 µM (COLO 205) of 40.2%, an inhibition of growth at 10 µM (NCI-H522) of 58% and an inhibition of growth at 10 µM (NCI-H460) of 13%. For the same compound, the inhibition of growth at 10 µM (NCI-H322M) was 59.5%, the inhibition of growth at 10 µM (NCI-H226) was 69.5% and the inhibition of growth at 10 µM (NCI-H23) was 39%. For the same compound, the inhibition of growth at 10 µM (HOP-62) was 47.8%, the inhibition of growth at 10 µM (HOP-92) was 50.6% and the inhibition of growth at 10 µM [1] was 58.4%. The inhibition of growth at 10 µM (A549) was 34.2%, the inhibition of growth at 10 µM (SR) was 24.8% and the inhibition of growth at 10 µM (MOLT-4) was 43.1%. For the same compound, the inhibition of growth at 10 µM (RPMI-8226) was 41.4%, the inhibition of growth at 10 µM (K562) was 42.3% and the inhibition of growth at 10 µM (HL-60(TB)) was 47.9%. The inhibition of growth at 10 µM (CCRF-CEM) was 57.1%.
C=CCn1c(C)nc2ccc(Nc3nc(N4CCCCC4)nc4ccccc34)cc21 gave a logD [2] of 2.72.
